Experimental data published in patent US20080248511A1, “METHODS TO QUENCH LIGHT FROM OPTICAL REACTIONS” (priority 2007, published 2008).
Read-outs that look alike come from different tables or passages of the source.

Columns and labels:
Format in all cases: biochemical
firefly luciferase [1] = biological target: T1, firefly luciferase (Photinus pyralis, UniProt P08659); experiment: Quaternary ammonium/phosphonium detergent screen, firefly luciferase (Example 5); conditions: final conc. 0.03% detergent, Tergitol NP-9 present; for remaining activity at 0.03 %: read-out: Retained Firefly Luciferase Luminescence (%)
T1 sequence (P08659 whole entry): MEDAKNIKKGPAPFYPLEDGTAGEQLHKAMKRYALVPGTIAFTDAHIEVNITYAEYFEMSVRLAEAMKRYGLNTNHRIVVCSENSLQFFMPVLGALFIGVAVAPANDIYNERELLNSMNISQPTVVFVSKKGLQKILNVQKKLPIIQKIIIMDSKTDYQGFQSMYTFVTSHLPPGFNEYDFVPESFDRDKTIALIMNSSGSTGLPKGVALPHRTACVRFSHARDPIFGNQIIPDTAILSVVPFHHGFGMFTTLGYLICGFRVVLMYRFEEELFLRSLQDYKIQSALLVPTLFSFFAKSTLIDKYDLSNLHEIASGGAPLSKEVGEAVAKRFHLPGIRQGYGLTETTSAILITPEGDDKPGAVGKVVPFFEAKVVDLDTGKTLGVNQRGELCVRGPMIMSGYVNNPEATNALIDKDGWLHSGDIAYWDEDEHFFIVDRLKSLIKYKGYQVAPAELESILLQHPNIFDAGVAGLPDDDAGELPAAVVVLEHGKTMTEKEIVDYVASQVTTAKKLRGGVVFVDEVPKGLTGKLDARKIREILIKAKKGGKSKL

Renilla luciferase [2] = biological target: T2, Renilla luciferase (Renilla reniformis, UniProt P27652); experiment: Quaternary ammonium/phosphonium detergent screen, Renilla luciferase (Example 5); conditions: for Retained Renilla Luciferase Luminescence (%) / remaining activity at 0.1 %: Tergitol NP-9 present
T2 sequence (P27652 1-311): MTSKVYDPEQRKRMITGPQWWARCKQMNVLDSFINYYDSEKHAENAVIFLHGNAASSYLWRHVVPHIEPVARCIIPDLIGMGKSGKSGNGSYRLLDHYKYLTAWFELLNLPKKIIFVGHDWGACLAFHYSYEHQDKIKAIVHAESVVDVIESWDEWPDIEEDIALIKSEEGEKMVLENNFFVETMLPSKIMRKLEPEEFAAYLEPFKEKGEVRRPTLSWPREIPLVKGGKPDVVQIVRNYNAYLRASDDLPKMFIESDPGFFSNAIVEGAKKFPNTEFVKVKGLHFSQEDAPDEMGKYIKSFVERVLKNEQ
Method: (§1) Each detergent was added at 0.2% to a reagent solution containing 50 mM Tricine pH 8.3, 3.5 mM MgSO4, 1 mM CDTA, 30 mM thiourea and 0.5% Tergitol NP-9. This solution or one not containing a detergent inhibitor was used to resuspend the Bright-Glo™ luciferin substrate (Promega).
(§2) The luciferase reactions were initiated by adding 100 μl of the firefly luciferase or Renilla luciferase enzyme solutions to 100 μl of reagent solution. The reactions were performed as described above. […] The detergent concentrations listed refer to the final concentration in the reaction.

firefly luciferase [3] = biological target: T1, firefly luciferase; experiment: Quaternary ammonium/phosphonium detergent screen, firefly luciferase (Example 5); conditions: Tergitol NP-9 present
Method: as §1, §2

Renilla luciferase [4] = biological target: T2, Renilla luciferase; experiment: Quaternary ammonium/phosphonium detergent screen, Renilla luciferase (Example 5); conditions: final conc. 0.03% detergent; for Retained Renilla Luciferase Luminescence (%) / remaining activity at 0.03 %: Tergitol NP-9 present; for remaining activity at 0.03 %: read-out: Retained Renilla Luciferase Luminescence (%)
[5] = final conc. 0.10% detergent, read-out: Retained Renilla Luciferase Luminescence (%)
[6] = final conc. 0.10% detergent, read-out: Retained Firefly Luciferase Luminescence (%)

CC1(C)C=Cc2ccccc2[N+]1(C)C.[I-] [1,1,2,2-Tetramethyl-1,2-dihydor-quinolynium iodide]
Retained Firefly Luciferase Luminescence (%) (firefly luciferase [1]): 87%
Selectivity Value (Renilla luciferase [2]; final conc. 0.10% detergent): 1.2
Retained Renilla Luciferase Luminescence (%) (Renilla luciferase [2]; final conc. 0.10% detergent): 89%
Retained Firefly Luciferase Luminescence (%) (firefly luciferase [3]; final conc. 0.10% detergent): 74%
Selectivity Value (Renilla luciferase [4]): 1.0
Retained Renilla Luciferase Luminescence (%) (Renilla luciferase [4]): 88%

C[N+]1(C)CCCc2cccc(O)c21.[I-] [1,1-Dimethyl-8-hydroxy-1,2,3,4-tetrahydroquinolium iodide]
Retained Firefly Luciferase Luminescence (%) (firefly luciferase [1]): 81%
Selectivity Value (Renilla luciferase [2]; final conc. 0.10% detergent): 0.8
Retained Renilla Luciferase Luminescence (%) (Renilla luciferase [2]; final conc. 0.10% detergent): 82%
Retained Firefly Luciferase Luminescence (%) (firefly luciferase [3]; final conc. 0.10% detergent): 68%
Selectivity Value (Renilla luciferase [4]): 0.9
Retained Renilla Luciferase Luminescence (%) (Renilla luciferase [4]): 88%

CCCCCCCCCCC(C(=O)c1ccc(OC)cc1)[N+](C)(C)C.[Br-] (stereo not drawn) [(1-(4-methoxybenzoyl)-undecyl)-trimethylammonium bromide]
remaining activity at 0.03 % (firefly luciferase [1]): 106%
Selectivity Value (Renilla luciferase [2]; final conc. 0.10% detergent): 52
remaining activity at 0.1 % (Renilla luciferase [2]; [5]): 2%
remaining activity at 0.1 % (firefly luciferase [3]; [6]): 104%
Selectivity Value (Renilla luciferase [4]): 5.3
remaining activity at 0.03 % (Renilla luciferase [4]): 20%

C[P+](CCCC(=O)O)(c1ccccc1)c1ccccc1.[Cl-] [(3-Carboxyl-propyl)-methyl-diphenyl-phosphonium chloride]
remaining activity at 0.03 % (firefly luciferase [1]): 98%
Selectivity Value (Renilla luciferase [2]; final conc. 0.10% detergent): 0.9
remaining activity at 0.1 % (Renilla luciferase [2]; read-out: Retained Renilla Luciferase Luminescence (%), final conc. 0.10% detergent): 89%
remaining activity at 0.1 % (firefly luciferase [3]; read-out: Retained Firefly Luciferase Luminescence (%), final conc. 0.10% detergent): 102%
Selectivity Value (Renilla luciferase [4]): 1.0
remaining activity at 0.03 % (Renilla luciferase [4]): 99%

CCCC[P+](CCCC)(CCCC)Cc1ccc(C)cc1.[Cl-] [(4-Methylbenzyl)tributylphosphonium chloride]
remaining activity at 0.03 % (firefly luciferase [1]): 99%
Selectivity Value (Renilla luciferase [2]; final conc. 0.10% detergent): 3.3
remaining activity at 0.1 % (Renilla luciferase [2]; [5]): 32%
remaining activity at 0.1 % (firefly luciferase [3]; [6]): 106%
Selectivity Value (Renilla luciferase [4]): 1.5
remaining activity at 0.03 % (Renilla luciferase [4]): 65%

C=CCCC[P+](c1ccccc1)(c1ccccc1)c1ccccc1.[Br-] [(4-Penten-1-yl)triphenylphosphonium bromide]
remaining activity at 0.03 % (firefly luciferase [1]): 98%
Selectivity Value (Renilla luciferase [2]; final conc. 0.10% detergent): 4.9
remaining activity at 0.1 % (Renilla luciferase [2]; [5]): 21%
remaining activity at 0.1 % (firefly luciferase [3]; [6]): 102%
Selectivity Value (Renilla luciferase [4]): 1.7
remaining activity at 0.03 % (Renilla luciferase [4]): 57%
